This is an account of results in US4225619A, “Substituted fluoracylresorcinols” (Boehringer Ingelheim GmBH, priority 1976, dated 1980).

Holding throughout (type): cell-based
Test [1] concerns Aspergillus niger. Briefly: Serial dilution test. As to conditions: for MIC: Aspergillus niger, 168 h, 27° C. for 7 days, read-out: MIC, S.D.T., Aspergillus niger. As for the experimental part: (§1) The inhibitory effect on bacteria and fungi was examined by the serial dilution test and the agar diffusion test (hole-test). As bacteria were used: Staphylococcus aureus SG 511, Streptococcus Aronson, Streptococcus pyogenes At CC 86 68; as fungi: Candida albicans AT CC 10231, Trichophyton mentagrophytes AT CC 9129 and Aspergillus niger.
(§2) 3. Sabouraud broth: for C. alb., Trich. mnt., A. niger
(§3) The age of the primary cultures is 24 hours for bacteria and 14 days for fungi. The standardization of the suspension of microorganisms is effected using a photometer according to Eppendorf (test tube .phi.14 mm, filter 546 nm) and a suspension for comparison consisting of barium sulfate, this suspension being created by adition of 3.0 ml of 1% barium chloride solution to 97 ml of 1% sulfuric acid. After the standardization the bacteria were further diluted to a concentration of 1:1000 by means of sodium chloride solution, the fungi were used in an undiluted state.
(§4) 40 mgm of the substance were put into a 10 ml measuring flask and filled up to the mark with the solvent (corresponds to a dilution of 1:250=4000 μg/ml). The further dilution series was standardized with distilled water or the respective solvent and the following substance concentrations were prepared: 1000; 250; 62.5 μg/ml.
(§5) The tubes were filled with 4.9 ml of the corresponding liquid nutrient medium. Then 0.1 ml of the substance dilution prepared above was added to each tube, so that the mentioned final concentrations were present. Finally each tube was inoculated with 0.1 ml of the standardized suspension of microorganisms. Control tests merely using the solvent are to be carried out simultaneously.
(§6) Bacteria were incubated at 37° C. for 18-20 hours and fungi at 27° C. for 7 days.
(§7) The measurement is carried out macroscopically defining the minimal inhibitory concentration (the lowest still microbiostatically effective concentration).

Test [2] deals with Candida albicans AT CC 10231. Description: Serial dilution test. The note with it: for MIC: Candida albicans, ATCC10231, 168 h, 27° C. for 7 days, read-out: MIC, S.D.T., Candida albicans. The method, then:
as §1, §2, §3, §4, §5, §6, §7

In test [3] the test system is Trichophyton mentagrophytes AT CC 9129. Description: Serial dilution test. The note with it: ATCC9129, 168 h, 27° C. for 7 days, read-out: MIC, S.D.T., Trichophyton mentagrophytes. The method, then: as §1, §2, §3, §4, §5, §6, §7
A further test relates to Streptococcus Aronson. Briefly: Agar diffusion test (hole-test). The note with it: 18-20 hours at 37° C., read-out: MIC, A.D.T., Streptococcus Aronson. The method, then: as §1
(§8) 2. Glucose agar: for Sc. Aronson and St. pyogenes Recipe see meat extract agar. After sterilization 1 weight percent of glucose is added as a sterile 50% solution.
(§9) The age of the primary cultures is 24 hours for bacteria and 14 days for fungi. The standardization of the suspension of microorganisms is effected using a photometer according to Eppendorf (test tube .phi.14 mm, filter 546 nm) and a suspension for comparison consisting of barium sulfate, this suspension being created by addition of 3.0 ml of 1% barium chloride solution to 97 ml of 1% sulfuric acid. After the standardization St. aureus SG 511 was diluted 1:1000 and Sc. pyogenes and Aronson 1:100 by means of sodium chloride solution. The fungi were used in an undiluted state.
(§10) 40 mgm of the substance were put into a 10 ml measuring flask and filled up to the mark with the solvent (corresponds to a dilution of 1:250=4000 μg/ml).
(§11) The dilutions to the concentrations under test were effected with distilled water or the respective solvent.
(§12) 19 ml of the nutrient medium were filled into sterile Petri dishes of a diameter of 8 cm and dried. Subsequently the agar plates were charged with 4 ml of seed agar. 100 ml of seed agar contain 1.25 ml of the suspension of microorganisms, an agar plate thus containing 0.05 ml of the suspension of microorganisms. After solidification of the agar, 5 holes of a diameter of 5 mm were punched into the plates and filled with 0.05 ml of the correspondingly concentrated substance solution.
(§13) Control tests merely using the solvent are to be carried out simultaneously.
as §6
(§14) The diameter of the area of inhibition in mm was measured after having deducted the diameter of the hole.
In general terms: A growth-free zone around the sample is the usual read-out of agar diffusion tests.

For test [4], the system named is Pityrosporum ovale CBS 1878. Briefly: Agar diffusion test for Pityrosporum ovale CBS 1878. The note with it: Malassezia furfur, CBS1878, 168 h, 7 days at 27° C., read-out: MIC, A.D.T., Pityrosporum ovale. As for the experimental part:
Agar diffusion test for Pityrosporum ovale CBS 1878 Nutrient medium
Littmann's agar, 23 ml per Petri dish, diameter of dish 100 mm.
Suspension of microorganisms in 0.9% sodium chloride solution, standardized using a photometer according to Eppendorf by means of a suspension for comparison consisting of barium sulfate. 0.05 ml per plate were used. The test substances were dissolved in dimethyl sulfoxide. The incubation time was 7 days at 27° C.; the area of inhibition in mm was measured, 0.05 ml of the solution of the substance were used for each punch-hole of a diameter of 6 mm. The results of these tests are recorded in the following tables 1 and 2: […]

For test [5], the system named is Aspergillus niger. Briefly: Agar diffusion test (hole-test). The note with it: 168 h, 27° C. for 7 days, read-out: MIC, A.D.T., Aspergillus niger. As for the experimental part: as §1
(§15) 3. Sabouraud agar: for C. alb., Trich. ment., A. niger
as §9, §10, §11, §12, §13, §6, §14

For test [6], the system named is Candida albicans AT CC 10231. Briefly: Agar diffusion test (hole-test). As to conditions: ATCC10231, 168 h, 27° C. for 7 days, read-out: MIC, A.D.T., Candida albicans. As for the experimental part:
as §1, §15, §9, §10, §11, §12, §13, §6, §14

The test system of test [7] is Trichophyton mentagrophytes AT CC 9129. Briefly: Agar diffusion test (hole-test). The note with it: ATCC9129, 168 h, 27° C. for 7 days, read-out: MIC, A.D.T., Trichophyton mentagrophytes. The method, then: as §1, §15, §9, §10, §11, §12, §13, §6, §14
Test [8] relates to Staphylococcus aureus SG 511. Briefly: Agar diffusion test (hole-test). The note with it: SG511, 18-20 hours at 37° C., read-out: MIC, A.D.T., Staphylococcus aureus SG 511. As for the experimental part: as §1
1. Meat extract agar: for St. aureus SG 511
as §9, §10, §11, §12, §13, §6, §14

Test [9] has as its system Streptococcus pyogenes At CC 86 68. Description: Agar diffusion test (hole-test). As to conditions: ATCC8668, 18-20 hours at 37° C., read-out: MIC, A.D.T., Streptococcus pyogenes. As for the experimental part:
as §1, §8, §9, §10, §11, §12, §13, §6, §14

The mark [10] stands for this setting: reduced growth at this concentration.

≈ marks a conversion by molar mass, not a printed value. Where only a bound is given, the exact number is not on record here.

Broadly, the MIC is the lowest concentration found to suppress growth. Consider `O=C(c1ccc(O)cc1O)C(F)(F)F` [A, 2,4-Dihydroxy-trifluoroacetophenone, reference compound], for which the MIC amounted to 20 µg/mL (≈ 97 µM) in the test on Aspergillus niger [1]; 80 µg/mL (≈ 388 µM) in test [2]; 20 µg/mL (≈ 97 µM) in test [3]; 1000 µg/mL (≈ 4850 µM) in the test on Streptococcus Aronson; 1000 µg/mL (≈ 4850 µM) in test [4]; 250 µg/mL (≈ 1210 µM) with Aspergillus niger [5]. Moreover, the MIC in test [6] is 1000 µg/mL (≈ 4850 µM); in test [7], 250 µg/mL (≈ 1210 µM); in [8] it was 1000 µg/mL (≈ 4850 µM).

On to `CCc1cc(C(=O)C(F)(F)F)c(O)cc1O` [B, 5-Ethyl-2,4-dihydroxy-trifluoroacetophenone, reference compound], for which the MIC is 20 µg/mL (≈ 85.4 µM) with Aspergillus niger [1]; 20 µg/mL (≈ 85.4 µM) in test [2]; 5 µg/mL (≈ 21.4 µM) in [3]; 250 µg/mL (≈ 1070 µM) in the test with Streptococcus Aronson; 250 µg/mL (≈ 1070 µM) in [9]; 1000 µg/mL (≈ 4270 µM) in [4]. Moreover, the MIC with Aspergillus niger [5] is 250 µg/mL (≈ 1070 µM); in [6], 1000 µg/mL (≈ 4270 µM); in [7], 250 µg/mL (≈ 1070 µM); in test [8], 250 µg/mL (≈ 1070 µM).

Take `CCc1c(O)ccc(C(=O)C(F)(F)F)c1O` [C, 3-Ethyl-2,4-dihydroxy-trifluoroacetophenone, reference compound]: the MIC in the test with Aspergillus niger [1] was 5 µg/mL (≈ 21.4 µM); in [2], 20 µg/mL (≈ 85.4 µM); in [3], 1.25 µg/mL (≈ 5.34 µM); with Streptococcus Aronson it was 62.5 µg/mL (≈ 267 µM); in test [9] it was 62.5 µg/mL (≈ 267 µM); in test [4] it was 1000 µg/mL (≈ 4270 µM). Further, the minimum inhibitory concentration (MIC) in the test with Aspergillus niger [5] was 1000 µg/mL (≈ 4270 µM); in test [6], 1000 µg/mL (≈ 4270 µM); in [7], 62.5 µg/mL (≈ 267 µM); in test [8] it was 62.5 µg/mL (≈ 267 µM).

`COc1ccc(C(=O)C(F)(F)F)c(OC)c1` [D, 2,4-Dimethoxy-trifluoroacetophenone, reference compound]: the MIC with Aspergillus niger [1] was above 80 µg/mL; in [2], above 80 µg/mL; in test [3] it was above 80 µg/mL; in the test on Streptococcus Aronson, above 4000 µg/mL; in test [9] it was above 4000 µg/mL; in test [4] it was above 4000 µg/mL. Besides, the MIC (with Aspergillus niger [5]; in test [6]; in [7]; in [8]) was above 4000 µg/mL throughout.

Regarding `CC(C)Cc1c(O)ccc(C(=O)C(F)(F)F)c1O` [F, 2,4-Dihydroxy-3-iso-butyl-trifluoroacetophenone], the MIC with Aspergillus niger [1] was 20 µg/mL (≈ 76.3 µM); in test [2] it was 20 µg/mL (≈ 76.3 µM); in [3], 1.25 µg/mL (≈ 4.77 µM); with Streptococcus Aronson, at most 15.6 µg/mL; in test [9] it was at most 15.6 µg/mL; in test [4], 250 µg/mL (≈ 953 µM). The minimal inhibitory concentration (MIC) is 250 µg/mL (≈ 953 µM) in the test on Aspergillus niger [5], 250 µg/mL (≈ 953 µM) in test [6], at most 15.6 µg/mL in [7] and 62.5 µg/mL (≈ 238 µM) in test [8].

Take `CC1CCC(c2c(O)ccc(C(=O)C(F)(F)F)c2O)CC1` (centres unmarked) [H, 2,4-Dihydroxy-3-(4'-methyl)-cyclohexyl-trifluoro-acetophenone]: the “Concentration with reduced growth (value in brackets), S.D.T., Aspergillus niger” value in the test with Aspergillus niger [1] (setting [10]) was found to be 80 µg/mL. In test [2] (setting [10]), the “Concentration with reduced growth (value in brackets), S.D.T., Candida albicans” value stood at 80 µg/mL. Also, the MIC in [3] is 1.25 µg/mL (≈ 4.14 µM); with Streptococcus Aronson, at most 15.6 µg/mL; in test [9], at most 15.6 µg/mL; in [4], 1000 µg/mL (≈ 3310 µM); in the test with Aspergillus niger [5], 62.5 µg/mL (≈ 207 µM); in test [6] it was 1000 µg/mL (≈ 3310 µM). The MIC in test [7] and in test [8] was at most 15.6 µg/mL each time.

As to `CC(C)c1c(O)ccc(C(=O)C(F)(F)F)c1O` [P, 2,4-Dihydroxy-3-isopropyl-trifluoroacetophenone], the values for the MIC (in the test on Streptococcus Aronson; in [9]; in test [8]) were at most 15.6 µg/mL, 62.5 µg/mL (≈ 252 µM) and 62.5 µg/mL (≈ 252 µM), respectively.
